# Source: patent US6448374B1, “Production of phosphopeptides from casein” (The University of Melbourne, priority 1991, dated 2002)
# Where no end group is shown, it is not given here. [ ]: non-standard residue; d: D form. pS = N[C@@H](COP(=O)(O)O)C(=O)O
# Experiments:
# [1] = phosphate binding of the phosphopeptide; type: physicochemical; conditions: calcium phosphate ACPP
# Excerpt: (§1) The calcium ACPP can be converted to calcium phosphate ACPP by addition of CaCl2 and Na2HPO4 where the Ca/P final ratio is 1.67. The peptide αs1(59-79) can bind 21 Ca and 13 PO4. The filtrate of the above process is suited for the purification of other bioactive casein peptides by size and charge-based separation technologies and can be used as microbiological growth media, as dietary supplements after debittering or as a nitrogen fertilizer.
# [2] = phosphopeptides released by tryptic digestion of casein; from Australian Patent No. 593365; cited from earlier work
# [3] = calcium binding of the phosphopeptide; type: physicochemical; conditions: calcium phosphate ACPP
# Excerpt: as §1
Substance,PO4 bound per peptide [1],anticariogenic (tooth-decay-inhibiting) activity [2],Ca bound per peptide [3]
αs1(59-79): casein tryptic phosphopeptide containing -Ser(P)-Ser(P)-Ser(P)-Glu-Glu- (QMEAESI[pS][pS][pS]EEIVPNSVEQK; ends and bridges not checked; also: other serines' phosphorylation not given here),13 PO4,anticariogenic (tooth-decay-inhibiting) activity,21 Ca
αs2(2-21): casein tryptic phosphopeptide containing -Ser(P)-Ser(P)-Ser(P)-Glu-Glu- (NTMEHV[pS][pS][pS]EESIISQETYK; ends and bridges not checked; also: other serines' phosphorylation not given here),–,anticariogenic (tooth-decay-inhibiting) activity,–
αs2(46-70): casein tryptic phosphopeptide containing -Ser(P)-Ser(P)-Ser(P)-Glu-Glu- (NANEEEYSIG[pS][pS][pS]EESAEVATEEVK; ends and bridges not checked; also: other serines' phosphorylation not given here),–,anticariogenic (tooth-decay-inhibiting) activity,–
β(2-25): casein tryptic phosphopeptide containing -Ser(P)-Ser(P)-Ser(P)-Glu-Glu- (ELEELNVPGEIVESL[pS][pS][pS]EESITR; ends and bridges not checked; also: other serines' phosphorylation not given here),–,anticariogenic (tooth-decay-inhibiting) activity,–
